US10519177B2, “Heterocyclic compounds and uses thereof” (Plexxikon Inc., priority 2013, dated 2019)
Where two headings read alike, the source gives them in different places.

Columns and labels:
[1] = molecular target: BRD4-BD12 (1-477) (Homo sapiens (Human), UniProt O60885); assay: Alphascreen binding assay BRD4-BD12; details: BRD4(1 2) H4; read-out: Biochemical activity (IC50 μM) BRD4(1 2) H4
Summary of the method: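 In this competition format, compounds displace a biotinylated tetra-acetyl H4 peptide from E. coli-expressed human BRD4 bromodomain constructs captured on nickel chelate beads. The reaction runs at pH 7.5 with 2 mM DTT and detergent for 1 h at room temperature before a 30 min bead step.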

[2] = test system: bromodomain; assay: at least one of the bromodomain cell assays of Example 57; format: cell-based; details: at least one of the bromodomain cell assays described in Example 57; read-out: IC50 in at least one of the bromodomain cell assays
[3] = test system: MV-4-11 cells; assay: Oncology cell growth assay MV-4-11 (CellTiter Glo); format: cell-based; details: Homo sapiens, MV4-11, 72 h, read-out: Cell activity (IC50 μM) MV-4-11 3d-Growth
Summary of the method: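 Growth read by CellTiter Glo luminescence after 72 h compound treatment of MLL-AF4-bearing MV-4-11 cells (3000/well). Titration: 8 points, 1:3 steps, maximum 10 μM, 0.2% DMSO final. Data normalized to DMSO wells, four-parameter fit gives pIC50.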

Compound: Cc1noc(C)c1-c1cnc2c(-c3ccc(C(=O)O)cc3F)cn(CC3(F)CCCCC3)c2c1 [P-0468, 4-[6-(3,5-dimethylisoxazol-4-yl)-1-[(1-fluorocyclohexyl)methyl]pyrrolo[3,2-b]pyridin-3-yl]-3-fluoro-benzoic acid]
- IC50 [1]: < 1 µM
- IC50 [2]: < 10000 nM
- IC50 ([3]; MV-4-11, 3d growth): < 1 µM

Compound: [2H]C([2H])(C1CCC(F)(F)CC1)n1cc(-c2ccc(C(=O)OC)cc2)c2ncc(-c3c(C)noc3C)cc21 [P-0538, methyl 4-[1-[dideuterio-(4,4-difluorocyclohexyl)methyl]-6-(3,5-dimethylisoxazol-4-yl)pyrrolo[3,2-b]pyridin-3-yl]benzoate]
- IC50 [1]: < 1 µM
- IC50 [2]: < 10000 nM
- IC50 ([3]; MV-4-11, 3d growth): < 1 µM

Compound: [2H]C([2H])(C1CCC(F)(F)CC1)n1cc(-c2ccc(C)nc2)c2ncc(-c3c(C)noc3C)cc21 [P-0344, 4-[1-[dideuterio-(4,4-difluorocyclohexyl)methyl]-3-(6-methyl-3-pyridyl)pyrrolo[3,2-b]pyridin-6-yl]-3,5-dimethyl-isoxazole]
- IC50 [1]: < 1 µM
- IC50 [2]: < 10000 nM
- IC50 [3]: < 1 µM

Compound: Cc1noc(C)c1-c1cnc2c(-c3cnc(N)nc3)cn(CC3(F)CCCCC3)c2c1 [P-0473, 5-[6-(3,5-dimethylisoxazol-4-yl)-1-[(1-fluorocyclohexyl)methyl]pyrrolo[3,2-b]pyridin-3-yl]pyrimidin-2-amine]
- IC50 [1]: < 1 µM
- IC50 [2]: < 10000 nM
- IC50 ([3]; MV-4-11, 3d growth): < 1 µM

Compound: Cc1noc(C)c1-c1cnc2c(-c3cnc(C4CC4)nc3)cn(CC3CCC(F)(F)CC3)c2c1 [P-0405, 4-[3-(2-cyclopropylpyrimidin-5-yl)-1-[(4,4-difluorocyclohexyl)methyl]pyrrolo[3,2-b]pyridin-6-yl]-3,5-dimethyl-isoxazole]
- IC50 [1]: < 1 µM
- IC50 [2]: < 10000 nM
- IC50 [3]: < 1 µM

Compound: Cc1noc(C)c1-c1cnc2c(-c3ccc4c(c3)CNC4=O)cn(CC3(F)CCCCC3)c2c1 [P-0505, 5-[6-(3,5-dimethylisoxazol-4-yl)-1-[(1-fluorocyclohexyl)methyl]pyrrolo[3,2-b]pyridin-3-yl]isoindolin-1-one]
- IC50 [1]: < 1 µM
- IC50 [2]: < 10000 nM
- IC50 ([3]; MV-4-11, 3d growth): < 1 µM

Compound: Cc1noc(C)c1-c1cnc2c(-c3ccc(C4(C#N)CC4)cc3)cn(CC3CCC(F)(F)CC3)c2c1 [P-0507, 1-[4-[1-[(4,4-difluorocyclohexyl)methyl]-6-(3,5-dimethylisoxazol-4-yl)pyrrolo[3,2-b]pyridin-3-yl]phenyl]cyclopropanecarbonitrile]
- IC50 [1]: < 1 µM
- IC50 [2]: < 10000 nM
- IC50 ([3]; MV-4-11, 3d growth): < 1 µM

Compound: Cc1noc(C)c1-c1cnc2c(-c3ccc(OCC(=O)O)cc3)cn(CC3(F)CCCCC3)c2c1 [P-0503, 2-[4-[6-(3,5-dimethylisoxazol-4-yl)-1-[(1-fluorocyclohexyl)methyl]pyrrolo[3,2-b]pyridin-3-yl]phenoxy]acetic acid]
- IC50 [1]: < 1 µM
- IC50 [2]: < 10000 nM
- IC50 ([3]; MV-4-11, 3d growth): < 1 µM

Compound: Cc1noc(C)c1-c1cnc2c(-c3cnn(CC(F)(F)F)c3)cn(CC3CCC(F)(F)CC3)c2c1 [P-0253, 4-[1[(4,4-difluorocyclohexyl)methyl]-3-[1-(2,2,2-trifluoroethyl)pyrazol-4-yl]pyrrolo[3,2-b]pyridin-6-yl]-3,5-dimethyl-isoxazole]
- IC50 [1]: < 1 µM
- IC50 [2]: < 10000 nM
- IC50 [3]: < 1 µM

Compound: Cc1noc(C)c1-c1cnc2c(-c3cccc(C(=O)O)c3)cn(CC3CCC(F)(F)CC3)c2c1 [P-0393, 3-[1-[(4,4-difluorocyclohexyl)methyl]-6-(3,5-dimethylisoxazol-4-yl)pyrrolo[3,2-b]pyridin-3-yl]benzoic acid]
- IC50 [1]: < 1 µM
- IC50 [2]: < 10000 nM
- IC50 [3]: < 1 µM

Compound: Cc1noc(C)c1-c1cnc2c(-c3ccc([N+](=O)[O-])cc3)cn(CC3CCC(F)(F)CC3)c2c1 [P-0598, 4-[1-[(4,4-difluorocyclohexyl)methyl]-3-(4-nitrophenyl)pyrrolo[3,2-b]pyridin-6-yl]-3,5-dimethyl-isoxazole]
- IC50 [1]: < 1 µM
- IC50 [2]: < 10000 nM
- IC50 ([3]; MV-4-11, 3d growth): < 1 µM

Compound: Cc1noc(C)c1-c1cnc2c(-c3cnn(C(F)F)c3)cn(C(CC#N)C3CCCC3)c2c1 (stereo not drawn) [P-0252, 3-cyclopentyl-3-[3-[1-(difluoromethyl)pyrazol-4-yl]-6-(3,5-dimethylisoxazol-4-yl)pyrrolo[3,2-b]pyridin-1-yl]propanenitrile]
- IC50 [1]: < 1 µM
- IC50 [2]: < 10000 nM
- IC50 [3]: < 1 µM

Compound: CNC(=O)Nc1ccc(-c2cn([C@@H](C)c3ccccn3)c3cc(-c4c(C)noc4C)cnc23)cc1 [P-0563, 1-[4-[6-(3,5-dimethylisoxazol-4-yl)-1-[(1S)-1-(2-pyridyl)ethyl]pyrrolo[3,2-b]pyridin-3-yl]phenyl]-3-methyl-urea]
- IC50 [1]: < 1 µM
- IC50 [2]: < 10000 nM
- IC50 ([3]; MV-4-11, 3d growth): < 1 µM

Compound: Cc1noc(C)c1-c1cnc2c(-c3ccc(C#N)cc3)cn(CC3CCC(F)(F)CC3)c2c1 [P-0434, 4-[1-[(4,4-difluorocyclohexyl)methyl]-6-(3,5-dimethylisoxazol-4-yl)pyrrolo[3,2-b]pyridin-3-yl]benzonitrile]
- IC50 [1]: < 1 µM
- IC50 [2]: < 10000 nM
- IC50 ([3]; MV-4-11, 3d growth): < 1 µM

Compound: Cc1noc(C)c1-c1cnc2c(-c3ccc(C(=O)O)cc3)cn(Cc3ccccc3)c2c1 [P-0375, 4-[1-benzyl-6-(3,5-dimethylisoxazol-4-yl)pyrrolo[3,2-b]pyridin-3-yl]benzoic acid]
- IC50 [1]: < 1 µM
- IC50 [2]: < 10000 nM
- IC50 [3]: < 1 µM

Compound: COCc1ccc(-c2cn(CC3CCCCC3)c3cc(-c4c(C)noc4C)cnc23)cc1 [P-0705, 4-[1-(cyclohexylmethyl)-3-[4-(methoxymethyl)phenyl]pyrrolo[3,2-b]pyridin-6-yl]-3,5-dimethyl-isoxazole]
- IC50 [1]: < 1 µM
- IC50 [2]: < 10000 nM
- IC50 ([3]; MV-4-11, 3d growth): < 1 µM

Compound: Cc1noc(C)c1-c1cnc2c(-c3ccc(C(N)=O)cc3)cn(CC3CCC(F)(F)CC3)c2c1 [P-0389, 4-[1-[(4,4-difluorocyclohexyl)methyl]-6-(3,5-dimethylisoxazol-4-yl)pyrrolo[3,2-b]pyridin-3-yl]benzamide]
- IC50 [1]: < 1 µM
- IC50 [2]: < 10000 nM
- IC50 [3]: < 1 µM

Compound: Cc1ccc(-c2cn(CC3(F)CCCCC3)c3cc(-c4c(C)noc4C)cnc23)cc1C(=O)O [P-0525, 5-[6-(3,5-dimethylisoxazol-4-yl)-1-[(1-fluorocyclohexyl)methyl]pyrrolo[3,2-b]pyridin-3-yl]-2-methyl-benzoic acid]
- IC50 [1]: < 1 µM
- IC50 [2]: < 10000 nM
- IC50 ([3]; MV-4-11, 3d growth): < 1 µM

Compound: Cc1noc(C)c1-c1cnc2c(I)cn(CC3CCC4(CC3)CC4)c2c1 [P-0580, 4-[3-iodo-1-(spiro[2.5]octan-6-ylmethyl)pyrrolo[3,2-b]pyridin-6-yl]-3,5-dimethyl-isoxazole]
- IC50 [1]: < 1 µM
- IC50 [2]: < 10000 nM
- IC50 ([3]; MV-4-11, 3d growth): < 1 µM

Compound: Cc1noc(C)c1-c1cnc2c(-c3cnn(C)c3)cn([C@@H](C)c3ccccn3)c2c1 [P-0516, 3,5-dimethyl-4-[3-(1-methylpyrazol-4-yl)-1-[(1S)-1-(2-pyridyl)ethyl]pyrrolo[3,2-b]pyridin-6-yl]isoxazole]
- IC50 [1]: < 1 µM
- IC50 [2]: < 10000 nM
- IC50 ([3]; MV-4-11, 3d growth): < 1 µM

Compound: Cc1noc(C)c1-c1cnc2c(-c3cnc(N)cn3)cn(CC3CCC(F)(F)CC3)c2c1 [P-0399, 5-[1-[(4,4-difluorocyclohexyl)methyl]-6-(3,5-dimethylisoxazol-4-yl)pyrrolo[3,2-b]pyridin-3-yl]pyrazin-2-amine]
- IC50 [1]: < 1 µM
- IC50 [2]: < 10000 nM
- IC50 [3]: < 1 µM

Compound: Cc1noc(C)c1-c1cnc2c(-c3ccc(CC(=O)O)cc3)cn(CC3CCCCC3)c2c1 [P-0590, 2-[4-[1-(cyclohexylmethyl)-6-(3,5-dimethylisoxazol-4-yl)pyrrolo[3,2-b]pyridin-3-yl]phenyl]acetic acid]
- IC50 [1]: < 1 µM
- IC50 [2]: < 10000 nM
- IC50 ([3]; MV-4-11, 3d growth): < 1 µM

Compound: CCOC(=O)c1ccc(-n2cc(CC3CCC(F)(F)CC3)c3cc(-c4c(C)noc4C)cnc32)c(F)c1 [P-0441, ethyl 4-[3-[(4,4-difluorocyclohexyl)methyl]-5-(3,5-dimethylisoxazol-4-yl)pyrrolo[2,3-b]pyridin-1-yl]-3-fluoro-benzoate]
- IC50 [1]: < 1 µM
- IC50 [2]: < 10000 nM
- IC50 ([3]; MV-4-11, 3d growth): 1 to 10 µM

Compound: Cc1noc(C)c1-c1cnc2c(-c3ccc(O)nc3)cn(CC3CCC(F)(F)CC3)c2c1 [P-0402, 5-[1-[(4,4-difluorocyclohexyl)methyl]-6-(3,5-dimethylisoxazol-4-yl)pyrrolo[3,2-b]pyridin-3-yl]pyridin-2-ol]
- IC50 [1]: < 1 µM
- IC50 [2]: < 10000 nM
- IC50 [3]: < 1 µM

Compound: Cc1noc(C)c1-c1cnc2c(-c3ccc(CC(=O)O)cc3)cn([C@@H](C)c3ccccn3)c2c1 [P-0558, 2-[4-[6-(3,5-dimethylisoxazol-4-yl)-1-[(1S)-1-(2-pyridyl)ethyl]pyrrolo[3,2-b]pyridin-3-yl]phenyl]acetic acid]
- IC50 [1]: < 1 µM
- IC50 [2]: < 10000 nM
- IC50 ([3]; MV-4-11, 3d growth): < 1 µM

Compound: COC(=O)c1ccc(-c2cn(C(C)(C)c3ccccn3)c3cc(-c4c(C)noc4C)cnc23)cc1 [P-0547, methyl 4-[6-(3,5-dimethylisoxazol-4-yl)-1-[1-methyl-1-(2-pyridyl)ethyl]pyrrolo[3,2-b]pyridin-3-yl]benzoate]
- IC50 [1]: < 1 µM
- IC50 [2]: < 10000 nM
- IC50 ([3]; MV-4-11, 3d growth): < 1 µM

Compound: CCn1cc(-c2cn(CC3CCC(F)(F)CC3)c3cc(-c4c(C)noc4C)cnc23)cn1 [P-0409, 4-[1-[(4,4-difluorocyclohexyl)methyl]-3-(1-ethylpyrazol-4-yl)pyrrolo[3,2-b]pyridin-6-yl]-3,5-dimethyl-isoxazole]
- IC50 [1]: < 1 µM
- IC50 [2]: < 10000 nM
- IC50 [3]: < 1 µM
